Results from US20240198337A1, “Bone Marrow on a Chip” (NEW YORK UNIVERSITY, priority 2021, published 2024).

Key:
[1] = test system: ETV6-RUNX1+ REH and Ph+ SUP-B15 human B-ALL cell lines; assay: Chemo-resistance of engineered human B-ALL BM niches to increasing doses of vincristine (Leukemia-on-a-Chip); assay type: cell-based; conditions: B-ALL co-cultured with niche cells
Text: FIG. 4A through FIG. 4G depicts modeling the leukemic bone marrow (BM) niche in a Leukemia-on-a-Chip platform. […] (FIG. 4C) The Hematoxylin and Eosin (H&E) staining image of the in vivo murine leukemic BM niche, with the enlarged area from showing the co-localization of B-ALL cells respectively within the perivascular and endosteal niches. (FIG. 4D) The chemo-resistance was compared between the engineered human BM niches of ETV6-RUNX1+ REH and Ph+ SUP-B15 B-ALL. Each drug concentration had >3 experimental replicates. (FIG. 4E) The cytokine profiles from two B-ALL blasts with and without niche cells were quantified using membrane-based ELISA analysis. (FIG. 4F) The quantification of nuclear (nuc)/cytoplasmic (cyto) ratio of NF-κB in REH and SUP B-ALL within their respective niche models. The ratios for REH and SUP were manually measured from 3 experimental replicates (N>150). […]
The outcome of drugs was defined by the viability of B-ALL cells as a cytotoxic end point after drug treatment. […] The cell viability was quantitatively determined by using Calcein-AM (Thermo Fischer Scientific) and DAPI, which respectively stained the live and dead cells. […] Afterward, cells were observed under a fluorescence microscope, and cellular viability was quantitatively measured by counting the number of objects in the green (live cells) and red (dead cells) channels. […]

murine Ph+ B-ALL cells = assay: Drug resistance testing: B-ALL cell viability in 3D hydrogel devices (Calcein-AM/DAPI); assay type: cell-based; conditions: NIL 1 μM, PRE 1 μM, VCR 0.1 μM; for B-ALL drug-induced cell death (chemo-resistance): presence of niche cells
Procedure: The outcome of drugs was defined by the viability of B-ALL cells as a cytotoxic end point after drug treatment. B-ALL cells were cultured alone or co-cultured with niche cells in 3D hydrogel devices for 24 hr, and then incubated with 1 μM nilotinib (NIL, Cayman Chemical), 1 μM prednisone (PRE, Sigma), and 0.1 μM vincristine (VCR, Sigma) for 48 hr. The cell viability was quantitatively determined by using Calcein-AM (Thermo Fischer Scientific) and DAPI, which respectively stained the live and dead cells. Briefly, cells were rinsed thrice with PBS and incubated with Calcein-AM and DAPI ([…] and 5 μg/mL in PBS or medium) solution for 30 min at 37° C., followed by a final rinse with PBS. Afterward, cells were observed under a fluorescence microscope, and cellular viability was quantitatively measured by counting the number of objects in the green (live cells) and red (dead cells) channels. Untreated groups of B-ALL cells were used as controls to benchmark the drug resistance of different groups.

REH B-ALL blasts = assay: REH viability cultured with hematopoietic cells under VCR treatment; assay type: cell-based, human; conditions: 48 hr treatment of 20 nM VCR; co-culture with CD34+ HSPC-derived hematopoietic cells
Text: FIG. 13A through FIG. 13L depict the results of niche cells functioning disparately to regulate leukemia progression. (FIG. 13A) Membrane-based ELISA analysis of CXCL12 secretion of ECs (Top left) and MSCs (Top right). Western blotting of CXCL12 expression of ECs (Bottom left) and MSCs (Bottom right). (FIG. 13B) VCAM-1 expression of ECs and the quantification result (N>200). (FIG. 13C) OPN expression of 2D cultured MSCs and the quantification result (N>200). (FIG. 13D) The correlation between distance of B-ALL to MSCs and dye retaining ability of B-ALL (N>120). B-ALL with lower DiD intensity was excluded as indicated by the dash line. (FIG. 13E) and (FIG. 13F) The flow cytometric images showing DiD dye retained in B-ALL, i.e. low (Lo), middle (Mid), and high (Hi) intensity. (FIG. 13G) The representative images showing p21 expression in B-ALL located in the perivascular and endosteal niches (N=54). (FIG. 13H) B-ALL viability in the two niches treated with different drugs. (FIG. 13I) NF-κB activation in REH after co-cultured with hematopoietic cells. […] (FIG. 13L) The quantified number of CD34+ cells. […]
The contributing mechanisms from hematopoietic cells was then investigated. […] Furthermore, healthy bone marrow mononuclear cells were cultured with and without REH blasts in the leukemia systems for day 1 and day 9 and the number of CD34+ cells was quantified. […]

For `CC[C@]1(O)C[C@H]2CN(CCc3c([nH]c4ccccc34)[C@@](C(=O)OC)(c3cc4c(cc3OC)N(C=O)[C@H]3[C@@](O)(C(=O)OC)[C@H](OC(C)=O)[C@]5(CC)C=CCN6CC[C@]43[C@@H]65)C2)C1` [vincristine], the “chemotherapy sensitivity (chemo-resistance) of REH versus SUP BM niches” value [1] was “SUP B-ALL co-cultured with niche cells showing more resistant to VCR than REH co-cultured with niche cells”, the “viability of B-ALL cells in perivascular versus endosteal niche” value (murine Ph+ B-ALL cells; 2-day treatment) was “a stronger dormancy and chemo-resistance of B-ALL cells in the endosteal niche” and the “B-ALL eradication (viability)” value (murine Ph+ B-ALL cells; absence of niche cells, 48 hr) was “efficient B-ALL eradication”. For the same compound, the “B-ALL drug-induced cell death (chemo-resistance)” value (murine Ph+ B-ALL cells; 48 hr) was “chemo-resistance phenomenon was confirmed”, the “B-ALL drug-induced cell death (chemo-resistance)” value (murine Ph+ B-ALL cells; 48 hr, listed as VCR) was “partial rescue of drug-induced cell death” and the “REH viability / chemo-resistance with hematopoietic cells” value (REH B-ALL blasts) was “hematopoietic cells also promoted NF-κB activation in B-ALL cells and chemo-resistance to VCR treatment”.
